Test results from patent US10765755B1, “Preparation and characterization of methylene blue nanoparticles for Alzheimer's disease and other tauopathies” (University of South Florida, priority 2013, dated 2020).

Tests used:
[1] = test system: human Tau stably over-expressed in HeLa cells; assay: Tau levels by immunoblotting in HeLa cells overexpressing tau; type: cell-based; details: HeLa cells over-expressing tau, 5 μM and 10 μM, 24 hours, immunoblot
Description: (§1) Endogenous Tau expressing human neuroblastoma SHSY5Y cells and Hela cells stably overexpressing wild-type human tau were maintained in OptiMEM media supplemented with fetal bovine serum and antibiotic solution as described previously. In six-well plates, cells were treated with control or MB-NPs for 24 hours. Cells were harvested and processed for immunoblotting as described previously.
(§2) To test the functionality of newly generated NPs, two different cell culture-based AD models were utilized. Endogenously tau expressing SHSHY neuronal cells and stably tau overexpressing HeLa cells were treated with 5 μM and 10 μM of MB-NPs, coated MB-NPs, control NPs, vehicle, and/or drug MB-solution for 24 hours. Cells were harvested, and samples were analyzed for tau levels by immunoblotting (FIG. 4).

[2] = test system: co-culture of rat brain endothelial 4 (RBE4) and C6 astrocytoma cells; assay: In vitro blood-brain barrier Transwell permeation assay; type: in vitro ADME; details: 10 μM, 0, 3, 6 and 24 hours, UV 600 nm, n=3
Description: Transwell Permeable Supports (CORNING) with a 0.4 μm pore size were purchased to investigate the permeability of MB nanoparticles across the blood-brain barrier (BBB) (FIG. 5). Each side was coated with 0.1% rat tail collagen I solution diluted from the purchased 100 mg solution (Collagen I, rat tail, 100 mg, BD BIOSCIENCES), left under the hood to adhere to the support for 1 hour, and washed with […] of 1×PBS after aspiration of the remaining collagen solution. The media used was a 1:1 solution of Ham's F10:MEM media (CELLGRO) supplemented with 10% fetal bovine serum (FBS) (INVITROGEN), 1% penicillin and streptomycin (CELLGRO), 0.4 mL of 1 ng/mL human recombinant diluted basic fibroblast growth factor (bFGF) (BD Biosciences), 5 mL of HEPES buffer (FISHER), and 2 mL of a 200 mM stock of L-glutamine (MEDIATECH). 1.5 mL of media was added surrounding the support, and 0.5 mL was added inside the support. This was left to incubate in the incubator (37° C. and 5% CO2) for 24 hours.
After 24 hours, the media was aspirated from the plates. […]
Subsequently, the media was aspirated and replaced with equal amounts of 1% FBS experimental media. […] The samples were quantified by UV spectrometry in the SYNERGY H4 plate reader (BIOTEK INSTRUMENTS Inc.) at a wavelength of 600 nm. Data was quantified in triplicates and averaged (n=3).

[3] = test system: endogenous Tau in human neuroblastoma SHSY-5Y cells; assay: Tau levels by immunoblotting in SHSY-5Y cells; type: cell-based; details: 5 μM and 10 μM, 24 hours, immunoblot
Description: as §1, §2

With `CN(C)c1ccc2nc3ccc(=[N+](C)C)cc-3sc2c1` [MB solution, Methylene blue] the “Reduction in tau level (in words)” value [1] was “reduce tau levels slightly higher at 10 μM compared to 5 μM”, the “Permeation across simulated BBB (in words)” value [2] was “remained relatively constant” and the “Reduction in tau level (in words)” value [3] was “reduce tau levels slightly higher at 10 μM compared to 5 μM”.
